Laboratory results: patent publication US11850233B2, “Reduced adaptive microbial resistance treatment for flesh eating disease (necrotizing fasciitis)” (priority 2019, dated 2023)
Entries after “also recorded” stand apart in the source; their conditions may differ. Structures can show the parent of a compound that is named as a salt. Where two headings read alike, the source gives them in different places.

What was measured:
[1] = tested on: MCF-7 breast cancer cells; experiment: MTS assay of MCF-7 breast cancer cell proliferation, dark or irradiated; type: cell-based; settings: aerobic, 0.3 ppm, after 48 hours
Method: For breast cancer cells experiment, a stored sample was taken and incubated for 3 to 5 minutes until room temperature. 5 mL of supplemented medium was placed in a 15 mL centrifuge tube. The contents in the cryotube were transferred into the 15 mL centrifuge tube containing the 5 mL medium. This mixture was centrifuged for 5 minutes at 1000 rpm. The supernatant was removed, and 3 mL of the medium was added to the cells and mixed thoroughly. From this mixture, 1 mL was placed into three separate culture flasks with 11 mL of medium each. These flasks were placed in a humidified atmosphere of 32° C. and 5% CO2. After incubation, cells were rinsed with PBS and aspirated. Cells were washed with trypsin, covered and placed in the incubator for five minutes. Solutions were then mixed with 4 mL of medium and subsequently transferred into a 15 mL centrifuge tube to be centrifuged for 5 minutes at 1000 rpm. The supernatant was then aspirated, and cells were re-suspended in 3-10 mL of medium. From here, 1 mL aliquots of this mixture were placed with 11 mL of medium in a new flask. Lastly, these flasks were placed in humidified atmosphere of 32° C. and 5% CO2. An aliquot of the stock solution (i.e. 9.5 mL) was removed from the stock culture and combined with an appropriate amount of regular medium (i.e. 220.5 mL). After proper mixing the stock with fresh media, 3 mL of the mixture were placed in each of the wells in a 6-well plate. Using the manufacturer's protocol, a MTS assay was performed to assess cell proliferation and toxicity of the multifunctional treatment composition. The concentrations of inventive treatment composition and its individual components were 0.3 ppm, until adjusted. The proliferation(s) of cells were compared to a control of cells alone. The growth the control was standardized as 100% growth and the cell proliferation in the presence of the treatment composition was observed and reported on the bases of percent when compared to the control. Similar procedure was followed for light experiment where samples were irradiated in a Rayonet photoreactor for 10 minutes.

E. coli (BL21) bacteria [2] = experiment: In vitro inhibition of E. coli (BL21) growth on LB agar plates, dark or irradiated; type: cell-based
From the text: E. coli (BL21) bacteria was used as a model prokaryote to determine the efficacy of the inventive treatment composition to kill bacteria. The effect of inventive composition as well as each individual component of the composition were all tested to determine the effect each on the growth of E. coli bacteria. The procedure described in Herschmann, R. J. et al (2019) “Effect of toxic metal ions on photosensitized singlet oxygen generation for photodegradation of polyaromatic hydrocarbon derivatives and inactivation of Escherichia coli” Photochemistry and Photobiology 86, 890-894, was followed. The bacterial cultures were grown in an incubator in Luria-Broth (LB)—Lennox formulation at 28° C. with shaking at 250 rpm. Once the cells reached the beginning of their exponential growth phase (A600=0.2), one milliliter aliquots were removed and centrifuged. The resulting pellets were washed once with sterile water and then resuspended in 500.0 μL of sterile water. The resuspended bacteria were mixed with 200.0 μL of stock solutions of the components or the multifunctional was selected for testing at 0.3 ppm for all components of the composition. The experimental samples were irradiated in a Rayonet photoreactor for 10 minutes or covered and kept in the dark for 10 minutes. Controls were prepared using 200.0 μL of sterile water were also prepared with one control being irradiated and the other control being kept in the dark. All samples were then briefly vortexed to thoroughly mix samples, and 20.0 μL aliquots of each sample were evenly spread using standard techniques over individual LB agar petri dishes. The plates were inverted and incubated at 28° C. for 48 hours. Results are reported as observed effects of the composition and each component of the composition on the inhibition of the growth of E. coli on the plates.

E. coli (BL21) bacteria [3] = settings: cited from earlier work
[4] = known value of the standard, prior art; cited from earlier work
[5] = Rate of DHN photooxidation under visible light irradiation (absorption at 300 nm); type: physicochemical; settings: Zinc (II) 0.000 ppm, TMPyP 3.67×10^−7 M, DHN 1.2×10^−4 M, aerobic aqueous
Method: Quartz cuvettes with 1 cm path-length and 3.0 mL volume were used for all measurements.
For singlet oxygenation experiment, a 3.0 mL solution of DHN (1.2×10^−4 M) and TMPyP (3.67×10^−7 M) was prepared by mixing 36 μL of 1×10^−2 M of DHN standard solution and 1.10 μL of 1×10^−3 M of TMPyP standard solution with ultrapure water at room temperature in an open atmosphere. Singlet oxygenation of sample was conducted in a Rayonet photoreactor for approximately 10 min at 28° C. and the photooxidation of DHN was monitored by recording a decrease in UV-Vis absorption of DHN at 300 nm for 10 min in 2 min intervals.

[6] = dark, aerobic, 0.3 ppm (Example 1 composition: Zn(II) 0.15 ppm + TMPyP 0.15 ppm), 10 minutes, plates after 48 hours
[7] = visible light irradiation 10 minutes, aerobic, 0.3 ppm (composition: Zn(II) 0.15 ppm + TMPyP 0.15 ppm), plates after 48 hours

## [Zn+2] [Zn(II) ions, zinc (II) sulfate]
[1]; dark
  inhibition of growth of MCF-7 breast cancer cells: no inhibition effect
[1]; visible light irradiation
  inhibition of growth of MCF-7 breast cancer cells: little or no inhibition effect
E. coli (BL21) bacteria [2]
  inhibition of growth of E. coli: essentially no noticeable inhibition; also recorded: almost no inhibition

## [Mn+2] [manganese(II)]
E. coli (BL21) bacteria [2]; [6]
  inhibition of growth of E. coli: zero inhibition
E. coli (BL21) bacteria [2]; [7]
  inhibition of growth of E. coli: zero inhibition

## [Fe+2] [Iron(II)]
E. coli (BL21) bacteria [2]; [6]
  inhibition of growth of E. coli: zero inhibition
E. coli (BL21) bacteria [2]; [7]
  inhibition of growth of E. coli: zero inhibition

## meso-tetrakis(N-methyl-4-pyridyl) porphyrin with Zn metal stably bound into the core of porphyrin [ZnTMPyP]
E. coli (BL21) bacteria [3]; dark conditions, tests by others or PCT/US2018/024338
  E. coli killing / growth inhibition reported earlier: not effective
E. coli (BL21) bacteria [2]; [6]
  inhibition of growth of E. coli: almost no inhibition
E. coli (BL21) bacteria [2]; [7]
  inhibition of growth of E. coli: inhibition of growth

## O=C(N[C@H](CO)[C@H](O)c1ccc([N+](=O)[O-])cc1)C(Cl)Cl [chloramphenicol, Chloramphenicol]
E. coli (BL21) bacteria [2]; [6]
  inhibition of growth of E. coli: Almost no inhibition

## [Co+2] [cobalt (II)]
E. coli (BL21) bacteria [2]
  inhibition of growth of E. coli: zero inhibition

## CN(C)c1ccc2nc3ccc(=[N+](C)C)cc-3sc2c1 [methylene blue]
[4]
  singlet oxygen quantum yield (ϕΔ): 0.52

## C[n+]1ccc(-c2c3nc(c(-c4cc[n+](C)cc4)c4ccc([nH]4)c(-c4cc[n+](C)cc4)c4nc(c(-c5cc[n+](C)cc5)c5ccc2[nH]5)C=C4)C=C3)cc1.[Cl-].[Cl-].[Cl-].[Cl-] [TMPyP, meso-tetra(N-methyl-4-pyridyl) porphyrin tetrachloride]
[5]
  Rate Constant, k of DHN photooxidation: 0.0001601 s⁻¹
E. coli (BL21) bacteria [3]; light, aerobic conditions, Khurana et al 2019
  E. coli growth inhibition reported by others: inhibits E. coli growth
[1]; dark
  inhibition of growth of MCF-7 breast cancer cells: almost no inhibition
[1]; visible light irradiation
  inhibition of growth of MCF-7 breast cancer cells: nearly complete inhibition
E. coli (BL21) bacteria [2]
  inhibition of growth of E. coli bacteria: 100%

## CC1(C)S[C@@H]2[C@H](NC(=O)[C@H](N)c3ccccc3)C(=O)N2[C@H]1C(=O)O [ampicillin, Ampicillin]
E. coli (BL21) bacteria [2]; [6]
  inhibition of growth of E. coli: Almost no inhibition
